Legend:
hCMEC/D3 cell line = assay: Antiport (exchange) of diphenhydramine and nalmefene in hCMEC/D3 cells; format: cell-based, human; details: hCMEC/D3 preloaded with DPH, within 2 min, unpublished data
SLC22A15 = molecular target: T1, SLC22A15 (Homo sapiens, UniProt Q8IZD6); assay: Uptake ratio screen, SLC22A15-overexpressing HEK293 over empty vector cells; format: cell-based; details: 2.5 μM (nicotine 10 μM), 2 min
T1 construct: by amplifying the entire gene-of-interest within the HEK293 genome via a long-range PCR
T1 sequence (Q8IZD6 whole entry): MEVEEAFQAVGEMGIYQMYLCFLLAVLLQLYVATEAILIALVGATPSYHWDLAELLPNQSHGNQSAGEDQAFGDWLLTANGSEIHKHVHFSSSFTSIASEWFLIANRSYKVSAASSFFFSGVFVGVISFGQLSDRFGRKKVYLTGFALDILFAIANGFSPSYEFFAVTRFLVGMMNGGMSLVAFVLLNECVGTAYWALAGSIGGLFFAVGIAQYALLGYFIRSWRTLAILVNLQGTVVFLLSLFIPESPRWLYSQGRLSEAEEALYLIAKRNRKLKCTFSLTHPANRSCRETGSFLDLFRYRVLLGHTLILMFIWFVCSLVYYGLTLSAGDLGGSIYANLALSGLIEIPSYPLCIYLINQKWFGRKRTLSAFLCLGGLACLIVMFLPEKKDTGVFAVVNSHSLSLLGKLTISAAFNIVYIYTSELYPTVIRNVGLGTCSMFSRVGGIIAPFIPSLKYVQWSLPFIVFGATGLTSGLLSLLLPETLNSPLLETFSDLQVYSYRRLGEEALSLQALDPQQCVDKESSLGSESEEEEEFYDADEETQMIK
Procedure: (§1) Typically discussed substrates of the proton organic-cation antiporter ([14]) are highlighted in dark green in Figure 1.
(§2) In preparation for transport experiments, 24-well plates were pre-coated with poly-D-lysine (Sigma-Aldrich) and 300,000 cells were plated per well and incubated for 48 h. Firstly, the 24-well plate was placed on a heating plate at 37 °C, and the cells were washed with 37 °C HBSS^+ buffer (Hank’s balanced salt solution supplemented with 10 mM Hepes and adjusted to pH 7.4; Thermo Fisher Scientific). The substance-of-interest, which was diluted in 37 °C HBSS^+ to a desired concentration, was added to the cells for exactly 2 min. […] The uptake was stopped with ice-cold HBSS^+, and the 24-well plate was removed from the heating plate. The cells were washed twice with the cold HBSS^+ before they were lysed for 15 min with 80% (v/v) acetonitrile containing the respective internal standard for mass spectrometry. For variations in seeded cell numbers between the cell lines, several wells were lysed in RIPA buffer and used for total protein quantification using a bicinchoninic assay ([74]) and bovine serum albumin as calibration.
(§3) The intracellular drug concentrations after transport experiments were analyzed by high-performance liquid chromatography coupled to tandem mass spectrometry analysis. The HPLC consisted of a Shimadzu Nexera HPLC System with a SIL-30AC autosampler, a LC-30AD pump, a CTO-20AC column oven, and a CBM-20A controller (Shimadzu). The reverse-phase chromatography of compounds was accomplished with a Brownlee SPP RP-Amide column with 4.6 × 100 mm inner dimensions, a particle size of 2.7 μm, and a preceding Phenomenex C-18 guard column. The mobile phase was composed of an organic additive with acetonitrile:methanol 6:1 (v/v) in total concentrations between 3% and 50% (v/v) and 0.1% (v/v) formic acid in the aqueous component of the eluent. During separation, the column oven was held at 40 °C and the mobile phase was maintained at a flow rate of 300 or 400 μl/min. After separation, the detection of substances was performed with an API 4000 tandem mass spectrometer (AB SCIEX, https://sciex.com/support/software-support/software-downloads), followed by quantification of results with the Analyst software (AB SCIEX, version 1.6.2). The composition of chromatographic conditions, as well as detailed mass spectrometric detection parameters, are listed in Table S5.
(§4) Transport-mediated net uptake was determined as fold-increase of transporter-overexpressing cells over empty vector–transfected control cells.

SLC35F2 = molecular target: T2, SLC35F2 (Homo sapiens, UniProt Q8IXU6); details: SLC35F2; ratio of Vmax over KM
T2 sequence (Q8IXU6 1-374): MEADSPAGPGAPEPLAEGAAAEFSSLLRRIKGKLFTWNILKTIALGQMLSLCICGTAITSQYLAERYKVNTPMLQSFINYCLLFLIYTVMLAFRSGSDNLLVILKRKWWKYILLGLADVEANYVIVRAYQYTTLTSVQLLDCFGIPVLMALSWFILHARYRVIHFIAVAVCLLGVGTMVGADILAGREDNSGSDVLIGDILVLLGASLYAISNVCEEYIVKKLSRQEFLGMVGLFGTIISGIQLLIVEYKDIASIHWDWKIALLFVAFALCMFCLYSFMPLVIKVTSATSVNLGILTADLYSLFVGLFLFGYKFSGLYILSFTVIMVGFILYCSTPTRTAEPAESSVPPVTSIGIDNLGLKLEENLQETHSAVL

SLC35G3 [1] = molecular target: T3, SLC35G3 (Homo sapiens, UniProt Q8N808); assay: Uptake ratio screen, SLC35G3-overexpressing HEK293 over empty vector cells; format: cell-based; design: by amplifying the entire gene-of-interest within the HEK293 genome via a long-range PCR; details: 2.5 μM substrate, 2 min, HEK293
T3 sequence (Q8N808 whole entry): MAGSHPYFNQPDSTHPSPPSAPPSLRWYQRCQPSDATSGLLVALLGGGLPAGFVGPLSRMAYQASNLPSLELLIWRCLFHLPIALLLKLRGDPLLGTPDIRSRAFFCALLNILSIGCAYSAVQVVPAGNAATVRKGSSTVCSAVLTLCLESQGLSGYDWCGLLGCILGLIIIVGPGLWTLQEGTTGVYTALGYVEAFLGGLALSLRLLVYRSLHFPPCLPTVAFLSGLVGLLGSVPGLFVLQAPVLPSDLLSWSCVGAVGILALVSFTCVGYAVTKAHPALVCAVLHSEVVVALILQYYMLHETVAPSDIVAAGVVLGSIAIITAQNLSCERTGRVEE

SLC35E2A [2] = molecular target: T4, SLC35E2A (Homo sapiens, UniProt P0CK97); assay: Uptake ratio screen, SLC35E2A-overexpressing HEK293 over empty vector cells; format: cell-based; design: by amplifying the entire gene-of-interest within the HEK293 genome via a long-range PCR; details: 2.5 μM, 2 min
T4 sequence (P0CK97 whole entry): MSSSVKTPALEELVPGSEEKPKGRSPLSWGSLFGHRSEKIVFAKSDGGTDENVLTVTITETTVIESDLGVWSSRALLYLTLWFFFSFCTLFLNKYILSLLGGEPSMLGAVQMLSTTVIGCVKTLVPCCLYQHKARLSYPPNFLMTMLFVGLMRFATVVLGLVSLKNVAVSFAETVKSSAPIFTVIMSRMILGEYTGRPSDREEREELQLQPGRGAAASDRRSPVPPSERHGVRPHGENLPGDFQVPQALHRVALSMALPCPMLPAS
Procedure: as §1, §2
(§5) The intracellular drug concentrations after transport experiments were analyzed by high-performance liquid chromatography coupled to tandem mass spectrometry analysis. The HPLC consisted of a Shimadzu Nexera HPLC System with a SIL-30AC autosampler, a LC-30AD pump, a CTO-20AC column oven, and a CBM-20A controller (Shimadzu). The reverse-phase chromatography of compounds was accomplished with a Brownlee SPP RP-Amide column with 4.6 × 100 mm inner dimensions, a particle size of 2.7 μm, and a preceding Phenomenex C-18 guard column. […] After separation, the detection of substances was performed with an API 4000 tandem mass spectrometer (AB SCIEX, https://sciex.com/support/software-support/software-downloads), followed by quantification of results with the Analyst software (AB SCIEX, version 1.6.2). […]
as §4

SLC35F4 = molecular target: T5, SLC35F4 (Homo sapiens, UniProt A4IF30); assay: Uptake ratio screen, SLC35F4-overexpressing HEK293 over empty vector cells; format: cell-based; design: by amplifying the entire gene-of-interest within the HEK293 genome via a long-range PCR; details: 2.5 μM, 2 min
T5 sequence (A4IF30 1-521): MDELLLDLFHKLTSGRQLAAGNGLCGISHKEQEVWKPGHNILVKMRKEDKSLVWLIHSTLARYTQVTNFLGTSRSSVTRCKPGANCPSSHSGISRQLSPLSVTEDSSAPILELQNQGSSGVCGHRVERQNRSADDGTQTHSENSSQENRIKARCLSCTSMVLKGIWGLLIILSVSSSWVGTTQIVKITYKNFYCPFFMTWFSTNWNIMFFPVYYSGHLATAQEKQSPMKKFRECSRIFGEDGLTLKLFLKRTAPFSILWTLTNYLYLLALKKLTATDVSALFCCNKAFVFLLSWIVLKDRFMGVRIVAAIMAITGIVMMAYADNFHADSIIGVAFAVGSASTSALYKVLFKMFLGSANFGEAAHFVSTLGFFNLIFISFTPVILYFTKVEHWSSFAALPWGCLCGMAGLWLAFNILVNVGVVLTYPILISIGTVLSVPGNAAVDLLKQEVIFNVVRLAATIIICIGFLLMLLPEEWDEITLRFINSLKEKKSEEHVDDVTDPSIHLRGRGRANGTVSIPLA
Procedure: as §1, §2, §3, §4

SLC35F5 = molecular target: T6, SLC35F5 (Homo sapiens, UniProt Q8WV83); assay: Uptake ratio screen, SLC35F5-overexpressing HEK293 over empty vector cells; format: cell-based; design: by amplifying the entire gene-of-interest within the HEK293 genome via a long-range PCR; details: 2.5 μM, 2 min
T6 sequence (Q8WV83 1-523): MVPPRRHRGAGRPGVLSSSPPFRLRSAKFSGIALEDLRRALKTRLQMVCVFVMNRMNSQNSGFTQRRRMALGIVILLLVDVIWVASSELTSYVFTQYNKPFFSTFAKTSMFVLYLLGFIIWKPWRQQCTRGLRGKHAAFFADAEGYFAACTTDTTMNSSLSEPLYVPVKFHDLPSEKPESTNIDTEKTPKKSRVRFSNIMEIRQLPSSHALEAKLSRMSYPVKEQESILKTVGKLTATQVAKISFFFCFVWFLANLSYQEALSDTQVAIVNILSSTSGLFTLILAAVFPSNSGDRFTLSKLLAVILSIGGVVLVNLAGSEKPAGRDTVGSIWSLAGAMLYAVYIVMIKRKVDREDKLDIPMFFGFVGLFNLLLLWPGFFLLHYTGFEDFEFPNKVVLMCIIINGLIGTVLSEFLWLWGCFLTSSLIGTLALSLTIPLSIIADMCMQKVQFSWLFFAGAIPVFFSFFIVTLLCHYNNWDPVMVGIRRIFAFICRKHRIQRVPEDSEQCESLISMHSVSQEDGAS
Procedure: as §1, §2, §3, §4

SLC35G3 [3] = molecular target: T3, SLC35G3; details: ratio of Vmax over KM
SLC35E2A [4] = molecular target: T4, SLC35E2A; details: ratio of Vmax over KM
SLC38A10 = SLC38A10 (Homo sapiens, UniProt Q9HBR0); assay: Uptake ratio screen, SLC38A10-overexpressing HEK293 over empty vector cells; format: cell-based; design: by amplifying the entire gene-of-interest within the HEK293 genome via a long-range PCR; details: 2.5 μM, 2 min
SLC38A10, sequence (Q9HBR0 whole entry): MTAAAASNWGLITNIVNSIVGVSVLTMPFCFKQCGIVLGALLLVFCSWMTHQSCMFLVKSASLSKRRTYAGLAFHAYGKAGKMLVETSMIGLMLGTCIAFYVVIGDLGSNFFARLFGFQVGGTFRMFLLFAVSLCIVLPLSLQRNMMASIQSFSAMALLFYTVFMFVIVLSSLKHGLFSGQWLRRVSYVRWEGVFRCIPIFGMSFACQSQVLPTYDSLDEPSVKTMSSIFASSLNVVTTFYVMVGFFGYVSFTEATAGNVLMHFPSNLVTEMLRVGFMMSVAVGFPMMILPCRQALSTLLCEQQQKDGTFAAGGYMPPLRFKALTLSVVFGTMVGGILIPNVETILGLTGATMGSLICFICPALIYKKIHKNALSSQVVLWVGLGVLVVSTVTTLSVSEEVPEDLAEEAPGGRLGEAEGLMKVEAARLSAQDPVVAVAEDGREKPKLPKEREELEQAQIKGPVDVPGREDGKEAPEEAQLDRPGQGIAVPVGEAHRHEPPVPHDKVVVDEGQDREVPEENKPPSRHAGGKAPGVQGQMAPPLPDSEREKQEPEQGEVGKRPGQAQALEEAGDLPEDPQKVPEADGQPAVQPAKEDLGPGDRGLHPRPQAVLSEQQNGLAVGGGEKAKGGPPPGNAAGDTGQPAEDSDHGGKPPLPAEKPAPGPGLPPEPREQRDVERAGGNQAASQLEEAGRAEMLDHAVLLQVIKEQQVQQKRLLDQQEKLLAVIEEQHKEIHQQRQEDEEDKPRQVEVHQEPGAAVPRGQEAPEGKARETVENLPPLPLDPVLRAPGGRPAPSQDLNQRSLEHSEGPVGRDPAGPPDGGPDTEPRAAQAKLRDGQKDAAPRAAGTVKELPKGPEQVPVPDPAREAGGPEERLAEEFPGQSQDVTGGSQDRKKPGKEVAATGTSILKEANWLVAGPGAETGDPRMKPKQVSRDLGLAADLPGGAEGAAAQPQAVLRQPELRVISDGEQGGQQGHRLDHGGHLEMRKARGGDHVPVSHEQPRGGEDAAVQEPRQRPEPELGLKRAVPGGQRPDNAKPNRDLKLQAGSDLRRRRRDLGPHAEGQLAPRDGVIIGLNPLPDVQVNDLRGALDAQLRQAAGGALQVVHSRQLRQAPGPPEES
Procedure: as §1
In preparation for transport experiments, 24-well plates were pre-coated with poly-D-lysine (Sigma-Aldrich) and 300,000 cells were plated per well and incubated for 48 h. Firstly, the 24-well plate was placed on a heating plate at 37 °C, and the cells were washed with 37 °C HBSS^+ buffer (Hank’s balanced salt solution supplemented with 10 mM Hepes and adjusted to pH 7.4; Thermo Fisher Scientific). The substance-of-interest, which was diluted in 37 °C HBSS^+ to a desired concentration, was added to the cells for exactly 2 min. […] For variations in seeded cell numbers between the cell lines, several wells were lysed in RIPA buffer and used for total protein quantification using a bicinchoninic assay ([74]) and bovine serum albumin as calibration.
The intracellular drug concentrations after transport experiments were analyzed by high-performance liquid chromatography coupled to tandem mass spectrometry analysis. […] After separation, the detection of substances was performed with an API 4000 tandem mass spectrometer (AB SCIEX, https://sciex.com/support/software-support/software-downloads), followed by quantification of results with the Analyst software (AB SCIEX, version 1.6.2). […]

SLC35E4 = molecular target: T7, SLC35E4 (Homo sapiens, UniProt Q6ICL7); assay: Uptake ratio screen, SLC35E4-overexpressing HEK293 over empty vector cells; format: cell-based; design: by amplifying the entire gene-of-interest within the HEK293 genome via a long-range PCR; details: 2.5 μM, 2 min
T7 sequence (Q6ICL7 1-350): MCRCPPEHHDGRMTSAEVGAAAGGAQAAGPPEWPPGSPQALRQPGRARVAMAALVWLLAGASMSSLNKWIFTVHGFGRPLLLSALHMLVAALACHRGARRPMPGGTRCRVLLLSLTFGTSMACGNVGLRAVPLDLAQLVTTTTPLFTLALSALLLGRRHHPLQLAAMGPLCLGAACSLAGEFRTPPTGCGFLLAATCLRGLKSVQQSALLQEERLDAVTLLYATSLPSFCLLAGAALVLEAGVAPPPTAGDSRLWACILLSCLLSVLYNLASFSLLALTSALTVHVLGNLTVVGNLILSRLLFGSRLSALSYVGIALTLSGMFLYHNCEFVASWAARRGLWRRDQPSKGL
Procedure: as §1, §2, §5, §4

CN(C)CCOC(c1ccccc1)c1ccccc1 [Diphenhydramine]
Share of substrates exchanged (antiport) (hCMEC/D3 cell line): approximately 60%

COC(=O)[C@H]1[C@@H](OC(=O)c2ccccc2)C[C@@H]2CC[C@H]1N2C [Cocaine]
Uptake by SLC22A15 (in words) (SLC22A15): significantly increased the uptake | Clint (±SEM) (SLC35F2): 2.58 (±2.11) μl × mg protein^-1 × min^-1 | Uptake data for SLC35G3, mean value (fold-increase over empty vector control) (SLC35G3 [1]): 2.02 | Uptake by SLC35E2A (in words) (SLC35E2A [2]): relatively high activity | Uptake by SLC35F4 (in words) (SLC35F4): enhanced cell uptake | Uptake by SLC35F5 (in words) (SLC35F5): highest uptake rates | Clint (±SEM) (SLC35G3 [3]): 1.59 (±0.57) μl × mg protein^-1 × min^-1 | Clint (±SEM) (SLC35E2A [4]): 4.14 (±1.59) μl × mg protein^-1 × min^-1

N[C@@H](CCC(=O)O)C(=O)O [glutamic acid]
Uptake by SLC38A10 compared with empty-vector-transfected cells (factor) (SLC38A10): 1.4 | Uptake by SLC35E4 (in words) (SLC35E4): minor

Source: paper PMC11406361, “Several orphan solute carriers functionally identified as organic cation transporters: Substrates specificity compared with known cation transporters” (The Journal of Biological Chemistry, 2024)
